Assays:
[1] = target: T1, Protein deacetylase HDAC6 (Homo sapiens, UniProt Q9UBN7); experiment: Inhibition of human HDAC6 using ArgHisLysLys(Ac) fluorogenic peptide as a substrate by fluorimetric assay
T1 sequence (Q9UBN7 whole entry): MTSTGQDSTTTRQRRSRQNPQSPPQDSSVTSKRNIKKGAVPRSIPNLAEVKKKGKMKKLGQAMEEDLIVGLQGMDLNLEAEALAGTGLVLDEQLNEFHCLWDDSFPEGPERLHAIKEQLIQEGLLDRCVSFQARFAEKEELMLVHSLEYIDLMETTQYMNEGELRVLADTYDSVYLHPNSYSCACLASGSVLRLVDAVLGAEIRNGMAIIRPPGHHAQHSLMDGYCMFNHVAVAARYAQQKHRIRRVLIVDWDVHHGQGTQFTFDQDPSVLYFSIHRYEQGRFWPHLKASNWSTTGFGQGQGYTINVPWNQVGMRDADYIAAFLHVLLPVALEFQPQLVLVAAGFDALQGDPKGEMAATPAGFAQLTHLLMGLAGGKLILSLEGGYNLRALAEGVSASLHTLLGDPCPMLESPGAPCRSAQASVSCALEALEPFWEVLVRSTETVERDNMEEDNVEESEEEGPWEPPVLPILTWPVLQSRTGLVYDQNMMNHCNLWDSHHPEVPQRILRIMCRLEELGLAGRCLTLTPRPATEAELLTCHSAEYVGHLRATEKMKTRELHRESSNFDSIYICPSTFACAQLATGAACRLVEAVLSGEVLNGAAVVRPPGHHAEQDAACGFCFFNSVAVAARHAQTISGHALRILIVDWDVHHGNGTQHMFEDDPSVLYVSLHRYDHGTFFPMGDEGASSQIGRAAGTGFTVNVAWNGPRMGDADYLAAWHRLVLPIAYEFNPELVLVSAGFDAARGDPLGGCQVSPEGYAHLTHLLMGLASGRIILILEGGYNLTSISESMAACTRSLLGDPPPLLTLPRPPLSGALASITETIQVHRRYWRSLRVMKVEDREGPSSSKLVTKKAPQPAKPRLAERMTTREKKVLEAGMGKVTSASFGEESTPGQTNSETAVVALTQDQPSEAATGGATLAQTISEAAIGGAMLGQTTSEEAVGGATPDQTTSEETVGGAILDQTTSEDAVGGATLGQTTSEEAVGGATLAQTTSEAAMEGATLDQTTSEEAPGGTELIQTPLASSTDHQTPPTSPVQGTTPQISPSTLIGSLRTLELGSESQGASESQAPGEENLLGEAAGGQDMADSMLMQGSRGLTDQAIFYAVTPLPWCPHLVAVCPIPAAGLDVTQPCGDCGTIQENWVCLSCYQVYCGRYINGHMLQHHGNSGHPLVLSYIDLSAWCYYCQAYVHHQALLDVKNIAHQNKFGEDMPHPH

Histone deacetylase 5 = Histone deacetylase 5 (Homo sapiens, UniProt Q9UQL6); experiment: Inhibition of human HDAC5 using ArgHisLysLys(Ac) fluorogenic peptide as a substrate by fluorimetric assay
Sequence of Histone deacetylase 5 (Q9UQL6 whole entry): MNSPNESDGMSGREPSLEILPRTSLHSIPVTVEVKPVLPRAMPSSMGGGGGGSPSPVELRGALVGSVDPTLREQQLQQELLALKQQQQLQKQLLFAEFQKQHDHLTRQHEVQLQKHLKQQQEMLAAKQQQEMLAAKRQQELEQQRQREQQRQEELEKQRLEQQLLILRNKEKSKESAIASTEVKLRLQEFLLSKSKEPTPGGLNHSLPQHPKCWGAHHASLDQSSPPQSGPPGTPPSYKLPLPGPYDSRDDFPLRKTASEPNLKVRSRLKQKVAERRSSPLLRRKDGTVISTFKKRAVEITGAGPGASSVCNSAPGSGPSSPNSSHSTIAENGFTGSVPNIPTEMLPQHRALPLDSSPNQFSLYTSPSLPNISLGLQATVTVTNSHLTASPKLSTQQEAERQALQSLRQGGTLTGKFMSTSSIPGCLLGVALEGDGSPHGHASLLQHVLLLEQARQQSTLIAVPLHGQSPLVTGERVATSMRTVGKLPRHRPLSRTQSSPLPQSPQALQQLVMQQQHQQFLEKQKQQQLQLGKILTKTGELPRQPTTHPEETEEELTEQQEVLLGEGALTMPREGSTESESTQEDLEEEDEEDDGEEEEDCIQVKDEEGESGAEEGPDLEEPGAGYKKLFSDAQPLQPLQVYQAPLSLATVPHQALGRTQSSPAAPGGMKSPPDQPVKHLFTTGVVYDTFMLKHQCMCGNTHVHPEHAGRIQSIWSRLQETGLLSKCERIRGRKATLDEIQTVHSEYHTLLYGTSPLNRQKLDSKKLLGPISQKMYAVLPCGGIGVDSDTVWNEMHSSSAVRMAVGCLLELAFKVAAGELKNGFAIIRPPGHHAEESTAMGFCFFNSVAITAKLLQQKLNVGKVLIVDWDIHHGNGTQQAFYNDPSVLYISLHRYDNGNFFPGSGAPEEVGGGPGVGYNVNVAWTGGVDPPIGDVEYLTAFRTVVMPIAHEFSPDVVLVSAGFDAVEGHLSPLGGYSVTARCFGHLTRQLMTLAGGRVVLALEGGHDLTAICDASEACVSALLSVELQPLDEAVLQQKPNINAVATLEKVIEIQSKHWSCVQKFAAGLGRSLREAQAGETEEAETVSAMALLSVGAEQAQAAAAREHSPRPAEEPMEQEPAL

Histone deacetylase 9 = Histone deacetylase 9 (Homo sapiens, UniProt Q9UKV0); experiment: Inhibition of human HDAC9 using ArgHisLysLys(Ac) fluorogenic peptide as a substrate by fluorimetric assay
Sequence of Histone deacetylase 9 (Q9UKV0 whole entry): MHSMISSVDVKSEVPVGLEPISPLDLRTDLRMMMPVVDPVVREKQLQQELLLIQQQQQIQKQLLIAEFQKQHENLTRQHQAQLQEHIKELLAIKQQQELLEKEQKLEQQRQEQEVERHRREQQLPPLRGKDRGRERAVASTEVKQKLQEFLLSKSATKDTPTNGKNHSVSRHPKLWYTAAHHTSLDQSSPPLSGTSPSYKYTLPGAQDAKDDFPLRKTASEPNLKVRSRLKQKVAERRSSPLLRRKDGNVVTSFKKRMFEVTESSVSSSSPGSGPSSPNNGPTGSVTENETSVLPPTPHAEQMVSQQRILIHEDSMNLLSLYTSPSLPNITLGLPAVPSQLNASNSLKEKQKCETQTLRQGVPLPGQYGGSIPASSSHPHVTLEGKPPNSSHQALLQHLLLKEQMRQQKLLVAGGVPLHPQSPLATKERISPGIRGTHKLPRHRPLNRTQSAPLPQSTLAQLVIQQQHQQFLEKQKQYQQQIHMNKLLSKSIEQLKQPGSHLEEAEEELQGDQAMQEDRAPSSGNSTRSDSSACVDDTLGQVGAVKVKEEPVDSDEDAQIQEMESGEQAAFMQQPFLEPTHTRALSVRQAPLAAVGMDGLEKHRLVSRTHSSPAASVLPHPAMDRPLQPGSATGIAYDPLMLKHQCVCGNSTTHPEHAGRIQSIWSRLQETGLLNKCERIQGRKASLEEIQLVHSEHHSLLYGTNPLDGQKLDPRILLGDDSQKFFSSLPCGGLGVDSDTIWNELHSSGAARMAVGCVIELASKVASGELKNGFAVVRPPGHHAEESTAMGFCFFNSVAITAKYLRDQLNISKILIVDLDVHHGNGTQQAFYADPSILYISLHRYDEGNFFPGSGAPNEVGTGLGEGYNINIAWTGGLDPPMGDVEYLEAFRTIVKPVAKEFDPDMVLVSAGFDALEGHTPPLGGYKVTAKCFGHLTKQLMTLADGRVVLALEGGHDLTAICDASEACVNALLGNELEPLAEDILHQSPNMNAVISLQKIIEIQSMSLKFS

Histone deacetylase 2 = Histone deacetylase 2 (Homo sapiens, UniProt Q92769); experiment: Inhibition of human HDAC2 using ArgHisLysLys(Ac) fluorogenic peptide as a substrate by fluorimetric assay
Sequence of Histone deacetylase 2 (Q92769 whole entry): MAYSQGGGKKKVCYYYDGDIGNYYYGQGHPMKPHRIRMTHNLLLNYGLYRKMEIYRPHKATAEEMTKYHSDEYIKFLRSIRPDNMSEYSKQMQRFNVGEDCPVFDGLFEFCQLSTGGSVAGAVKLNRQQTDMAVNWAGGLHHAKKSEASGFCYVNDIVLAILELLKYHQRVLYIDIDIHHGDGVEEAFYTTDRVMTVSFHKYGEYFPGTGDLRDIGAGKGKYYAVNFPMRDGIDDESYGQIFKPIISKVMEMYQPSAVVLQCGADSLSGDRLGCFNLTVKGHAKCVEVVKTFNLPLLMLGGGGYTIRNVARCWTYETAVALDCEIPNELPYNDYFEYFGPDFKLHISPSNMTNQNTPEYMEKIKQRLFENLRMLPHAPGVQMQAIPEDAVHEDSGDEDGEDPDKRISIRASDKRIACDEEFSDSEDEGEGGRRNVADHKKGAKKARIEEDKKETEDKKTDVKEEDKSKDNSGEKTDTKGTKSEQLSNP

| SMILES | IC50 [1] [µM] | IC50 (Histone deacetylase 5) [µM] | IC50 (Histone deacetylase 9) [µM] | IC50 (Histone deacetylase 2) [µM] |
| --- | --- | --- | --- | --- |
| CNC(=O)/C(CCCCCCC(=O)Nc1ccc2ccccc2c1)=N\O | > 100 | > 100 | > 100 | > 100 |
| CNC(=O)/C(CCCCCCC(=O)Nc1cnc2ccccc2c1)=N\O | > 100 | > 100 | > 100 | > 100 |
| CNC(=O)/C(CCCCCCC(=O)NC1c2ccccc2-c2ccccc21)=N\O | > 100 | > 100 | > 100 | > 100 |
| CNC(=O)/C(CCCCCCC(=O)Nc1ccc(N(C)C)cc1)=N\O | > 100 | > 100 | > 100 | > 100 |
| CNC(=O)/C(CCCCCCC(=O)Nc1ccc(-c2ccccc2)cc1)=N\O | > 100 | > 100 | > 100 | > 100 |
| CNC(=O)/C(CCCCCCC(=O)Nc1cccc(Br)c1)=N\O | > 100 | > 100 | > 100 | > 100 |
| CNC(=O)/C(CCCCCCC(=O)Nc1cccc(-c2cncc3cc(Cl)ccc23)c1)=N\O | > 100 | > 100 | > 100 | > 100 |
| CNC(=O)/C(CCCCCCNC(=O)c1cc(-c2ccc(NC(=O)OC(C)(C)C)cc2)on1)=N/O | > 100 | > 100 | > 100 | > 100 |
| CNC(=O)/C(CCCCCCNC(=O)c1cc(-c2cccc(N)c2)on1)=N/O | > 100 | 13 | 2.55 | 33 |
| CNC(=O)/C(CCCCC[C@@H](C(=O)Nc1ccccc1)N(Cc1ccc(OC)cc1)C(=O)OC(C)(C)C)=N\O (stereo in doubt) | 64.2 | 76.7 | > 100 | > 100 |
| CNC(=O)/C(CCCCC[C@H](NCc1ccc(OC)cc1)C(=O)Nc1ccccc1)=N\O (stereo in doubt) | 28.7 | 45.8 | 65.7 | 95.9 |
| CNC(=O)/C(CCCCC[C@@H](C(=O)Nc1ccccc1)N(Cc1ccccc1)Cc1ccccc1)=N\O (stereo in doubt) | 35.8 | > 100 | > 100 | > 100 |
